In US7528132B2, “Kinase inhibitors” (Schering Corporation, priority 2005, dated 2009):

These compounds were tested against T1, Akt1 (Homo sapiens, UniProt P31749) (assay: Akt1 kinase assay (33P phosphorylation of biotinylated peptide, Flash plates)). Details: read-out: IC50 (AKT1 inhibition).
T1 construct: made in house; host or cells: Sf9 insect cells (baculovirus, pBlueBacHis2B)
Assay type: biochemical
Description: The assay described below measures the phosphorylation of a biotinylated peptide by active recombinant Akt1 and other kinase isoforms. The biotinylated peptide contains a consensus sequence derived from Akt substrate Gsk3 (Glycogen synthase kinase 3). The ^33P-labeled peptide substrate was captured by streptavidin-coated Flash plates.
Active recombinant Akt1 was expressed in Sf9 insect cells and purified as described by Kumar et al., Biochim. Biophys. Acta. Jun. 15, 2001, 1526(3), 257-268. Biotinylated peptide of the sequence Bio-ahx-RPRAASF was purchased from Syn Pep (Dublin, Calif., USA).
Cloning and Expression of Human Akt1 Sf9 Cells
Human Akt1 cDNA was amplified from a marathon-ready human lung cDNA library (Clonetech) using nested oligo primers as described below. The first round of amplification was carried out using the following primers; Akt1F1 ([…]) and Akt1R1 (TCCATC […]) and for the second round amplification, the primers of the following sequence were used; Akt1F2 (GGATCCTCGG […]) and AKT1R2 (GGTACCATCGTC […]). The PCR product was subcloned into pCRScript plasmid as a BamHI/KpnI fragment and the sequence of the cDNA was confirmed by DNA sequencing. This plasmid was used as a template for reamplification of Akt1 using appropriate primers for subcloning into pBlueBaHis2B into BamH1/EcoRI sites to generate an in frame fusion to (His)6 tag and an anti-Xpress antibody epitope tag at the N-terminus. This construct was sequenced to verify the junction sequences and used for generating a recombinant baculovirus. Growth of the recombinant virus, amplification and determination of viral titer were carried out according to the instructions from the manufacturer (InVitrogen, CA).
Purification of Akt1 from Sf9 Cells
Viral stocks were used to infect large scale Sf9 cells at a multiplicity of infection (MOI) of 2.5. Cells were maintained at 27° C. for 60 h and okadaic acid was added to the cultures to a concentration of 50 nM. Cells were harvested 4 h hours later by centrifugation at 1200 rpm for 30 min followed by freezing at −80° C. until further use. All purification steps were carried out at 4° C. Whole cell pellets were suspended in buffer A (20 mM sodium phosphate buffer pH 7.8, 500 mM NaCl, 1 mM sodium vanadate, 5 mM sodium fluoride, 40 mM β-glycerophosphate, 10 mM imidazole and protease inhibitor cocktail) and lysed using a microfluidizer. The cell extract was centrifuged at 16,000×g for 10 min to remove the debris and directly loaded onto Ni-NTA Superflow resin using a FPLC pump operated at 1 ml/min. The column was washed once with buffer A, once with wash buffer B (20 mM sodium phosphate pH 6.0, 1 mM sodium vanadate, 5 mM sodium fluoride and protease cocktail) and once with wash buffer B containing 0.05% Tween-20 followed by washing with buffer A until OD260 returned to basal level. Proteins were eluted with buffer A containing 200 mM imidazole. Fractions were analyzed by electrophoresis on 10% denaturing polyacrylamide gels and fractions containing 85% pure protein band at 60 KDa were pooled and dialyzed against buffer C (20 mM Tris-HCl pH 7.5, 0.5 mM EDTA,-2 mM DTT, 145 mM NaCl, 0.1 mM sodium vanadate, 5 mM sodium fluoride, 10 mM, β-glycerophosphate and 20% glycerol). Purified protein was stored as aliquots at −80° C. Protein concentrations were determined using BCA protein assay reagent A (Catalog #23228). To examine the identity of the proteins, 2 μg of purified protein was electrophoresed on SDS-polyacrylamide gels and stained with coomassie blue dye or transferred to nitrocellulose membrane and probed with anti-Akt and anti-phospho-specific Akt antibodies using enhanced chemiluminescence (ECL) reagent according to the protocol described by the manufacturer (Amersham).
The kinase assay was performed in 96 well plates at room temperature. Assay solutions and plates were preincubated at room temperature for 5 min. […]

T1 sequence (P31749 whole entry): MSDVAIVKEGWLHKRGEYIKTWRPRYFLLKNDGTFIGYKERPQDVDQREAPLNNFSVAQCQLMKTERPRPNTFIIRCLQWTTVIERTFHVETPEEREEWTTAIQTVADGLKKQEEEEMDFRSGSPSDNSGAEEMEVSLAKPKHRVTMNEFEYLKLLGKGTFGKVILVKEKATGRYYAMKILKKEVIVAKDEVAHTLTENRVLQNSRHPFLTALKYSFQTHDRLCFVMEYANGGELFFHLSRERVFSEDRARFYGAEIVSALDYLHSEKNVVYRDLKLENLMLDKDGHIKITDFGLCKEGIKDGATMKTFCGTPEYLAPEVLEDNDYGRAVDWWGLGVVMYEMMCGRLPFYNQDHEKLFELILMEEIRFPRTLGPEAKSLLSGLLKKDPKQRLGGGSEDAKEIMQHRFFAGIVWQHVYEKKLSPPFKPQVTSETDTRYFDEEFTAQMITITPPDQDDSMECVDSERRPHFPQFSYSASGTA

Row | IC50 [µM] | SMILES
1 | 0.0057 | Clc1n[nH]c2ccc(-c3nncc(N4CCN[C@@H](Cc5ccccc5)C4)n3)cc12 [Compound 56, 5-[(S)-3-benzylpiperazin-1-yl]-3-(3-chloroindazol-5-yl)-[1,2,4]triazine]
2 | 0.0061 | CC(C)C[C@H]1CN(c2cnnc(-c3ccc4[nH]nc(Cl)c4c3)n2)CCN1 [Compound 64, 3-(3-chloroindazol-5-yl)-5-[(S)-3-isobutylpiperazin-1-yl]-[1,2,4]triazine]

Same assay, conditions: read-out: IC50 rating (AKT1 inhibition)

Row | IC50 [µM] | SMILES
3 | 0.1 to 1 | Cc1n[nH]c2ccc(-c3nncc(N4CCNC(Cc5ccccc5)(Cc5ccccc5)C4)n3)cc12 [Compound 54, 5-(3,3-dibenzylpiperazin-1-yl)-3-(3-methylindazol-5-yl)-[1,2,4]triazine]
4 | < 0.1 | c1ccc(C[C@H]2CN(c3cnnc(-c4ccc5[nH]ncc5c4)n3)CCN2)cc1 [Compound 55, 5-[(S)-3-benzylpiperazin-1-yl]-3-indazol-5-yl-[1,2,4]triazine]
5 | < 0.1 | Clc1n[nH]c2ccc(-c3nncc(N4CCN[C@@H](Cc5ccccc5)C4)n3)cc12 [Compound 56, 5-[(S)-3-benzylpiperazin-1-yl]-3-(3-chloroindazol-5-yl)-[1,2,4]triazine]
6 | 0.1 to 1 | Cc1n[nH]c2ccc(-c3nncc(N4CCNC(Cc5cccnc5)C4)n3)cc12 (centres unmarked) [Compound 57, 3-(3-Methylindazol-5-yl)-5-[3-(pyridin-3-ylmethyl)piperazin-1-yl]-[1,2,4]triazine]
7 | > 1 | Cc1n[nH]c2ccc(-c3nncc(N4CCNC(Cc5ccccn5)C4)n3)cc12 (centres unmarked) [Compound 58, 3-(3-methylindazol-5-yl)-5-[3-(pyridin-2-ylmethyl)piperazin-1-yl]-[1,2,4]triazine]
8 | 0.1 to 1 | Cc1n[nH]c2ccc(-c3nncc(N4CCCC(Cc5ccccc5)C4)n3)cc12 (centres unmarked) [Compound 59, 5-(3-benzylpiperidin-1-yl)-3-(3-methylindazol-5-yl)-[1,2,4]triazine]
9 | 0.1 to 1 | Cc1n[nH]c2ccc(-c3nncc(N4CCN(CCO)[C@@H](Cc5ccccc5)C4)n3)cc12 [Compound 60, 5-[(S)-3-benzyl-4-hydroxyethyl-piperazin-1-yl]-3-(3-methylindazol-5-yl)-[1,2,4]triazine]
10 | < 0.1 | CC(C)C[C@H]1CN(c2cnnc(-c3ccc4[nH]ncc4c3)n2)CCN1 [Compound 61, 3-indazol-5-yl-5-[(S)-3-isobutylpiperazin-1-yl]-[1,2,4]triazine]
11 | 0.1 to 1 | CCOC(=O)C1(Cc2ccccc2)CCCN(c2cnnc(-c3ccc4[nH]nc(C)c4c3)n2)C1 (centres unmarked) [Compound 62, 5-(3-benzyl-3-ethoxycarbonylpiperidin-1-yl)-3-(3-methylindazol-5-yl)-[1,2,4]triazine]
12 | 0.1 to 1 | Cc1n[nH]c2ccc(-c3nncc(N4CCCC(CO)(Cc5ccccc5)C4)n3)cc12 (centres unmarked) [Compound 63]
13 | < 0.1 | CC(C)C[C@H]1CN(c2cnnc(-c3ccc4[nH]nc(Cl)c4c3)n2)CCN1 [Compound 64, 3-(3-chloroindazol-5-yl)-5-[(S)-3-isobutylpiperazin-1-yl]-[1,2,4]triazine]
14 | > 1 | Cc1n[nH]c2ccc(-c3nncc(N4CCCC(Cc5ccccc5)(C(=O)O)C4)n3)cc12 (centres unmarked) [Compound 65]
15 | > 1 | COC(=O)C1(Cc2ccccc2)CCCN(c2cnnc(-c3ccc4[nH]nc(C)c4c3)n2)C1 (centres unmarked) [Compound 66]
16 | > 1 | Nc1n[nH]c2ccc(-c3nncc(N4CCN[C@@H](Cc5ccccc5)C4)n3)cc12 [Compound 67, 3-(3-aminoindazol-5-yl)-5-[(S)-3-benzylpiperazin-1-yl]-[1,2,4]triazine]
17 | 0.1 to 1 | Cc1n[nH]c2ccc(-c3nncc(N4CCNC(Cc5ccncc5)C4)n3)cc12 (centres unmarked) [Compound 68, 3-(3-methylindazol-5-yl)-5-[3-(pyridin-4-ylmethyl)piperazin-1-yl]-[1,2,4]triazine]
18 | 0.1 to 1 | Cc1n[nH]c2ccc(-c3nncc(N4CCC(Cc5ccccc5)C4)n3)cc12 (centres unmarked) [Compound 69, 3-(3-methylindazol-5-yl)-5-(3-benzylpyrrolidin-1-yl)-[1,2,4]triazine]
19 | > 1 | c1ccc(C[C@H]2CN(c3cnnc(-c4ccc5[nH]nc(-c6ccccc6)c5c4)n3)CCN2)cc1 [Compound 70, 5-[(S)-3-benzylpiperazin-1-yl]-3-(3-phenylindazol-5-yl)-[1,2,4]triazine]

Row | IC50 [µM] | SMILES
20 | 0.1 to 1 | c1ccc(-c2n[nH]c3ccc(-c4nncc(N5CCNCC5)n4)cc23)cc1 [Compound 71, 3-(3-phenylindazol-5-yl)-5-piperazin-1-yl-[1,2,4]triazine]
21 | > 1 | CC(C)C[C@H]1CN(c2cnnc(-c3ccc4[nH]nc(-c5ccccc5)c4c3)n2)CCN1 [Compound 72, 5-[(S)-3-isobutylpiperazin-1-yl]-3-(3-phenylindazol-5-yl)-[1,2,4]triazine]
22 | 0.1 to 1 | Cc1n[nH]c2ccc(-c3nncc(N4CCN[C@@H](C(C)(C)C)C4)n3)cc12 [Compound 73, 3-(3-methylindazol-5-yl)-5-[(S)-3-tert-butylpiperazin-1-yl]-[1,2,4]triazine]
23 | 0.1 to 1 | Cc1ccccc1CC1CN(c2cnnc(-c3ccc4[nH]ncc4c3)n2)CCN1 (centres unmarked) [Compound 74, 3-indazol-5-yl-5-[3-(2-methylbenzyl)piperazin-1-yl]-[1,2,4]triazine]
24 | > 1 | c1cc2[nH]nc(C3CC3)c2cc1-c1nncc(N2CCNCC2)n1 [Compound 75, 3-(3-cyclopropylindazol-5-yl)-5-piperazin-1-yl-[1,2,4]triazine]
25 | 0.1 to 1 | CC(C)C[C@H]1CN(c2cnnc(-c3ccc4[nH]nc(C5CC5)c4c3)n2)CCN1 [Compound 76, 3-(3-cyclopropylindazol-5-yl)-5-[(S)-3-isobutylpiperazin-1-yl]-[1,2,4]triazine]
26 | 0.1 to 1 | c1ccc(C[C@H]2CN(c3cnnc(-c4ccc5[nH]nc(C6CC6)c5c4)n3)CCN2)cc1 [Compound 77, 5-[(S)-3-benzylpiperazin-1-yl]-3-(3-cyclopropylindazol-5-yl)-[1,2,4]triazine]
27 | > 1 | CCc1n[nH]c2ccc(-c3nncc(N4CCNCC4)n3)cc12 [Compound 78, 3-(3-ethylindazol-5-yl)-5-piperazin-1-yl-[1,2,4]triazine]
28 | 0.1 to 1 | CCc1n[nH]c2ccc(-c3nncc(N4CCN[C@@H](CC(C)C)C4)n3)cc12 [Compound 79, 3-(3-ethylindazol-5-yl)-5-[(S)-3-isobutylpiperazin-1-yl]-[1,2,4]triazine]
29 | < 0.1 | CCc1n[nH]c2ccc(-c3nncc(N4CCN[C@@H](Cc5ccccc5)C4)n3)cc12 [Compound 80, 5-[(S)-3-benzylpiperazin-1-yl]-3-(3-ethylindazol-5-yl)-[1,2,4]triazine]
30 | < 0.1 | Cc1n[nH]c2ccc(-c3nnc(N)c(N4CCN[C@@H](C(C)(C)C)C4)n3)cc12 [Compound 81, 6-amino-3-(3-methylindazol-5-yl)-5-[(S)-3-tert-butylpiperazin-1-yl]-[1,2,4]triazine]
31 | 0.1 to 1 | Cc1n[nH]c2ccc(-c3nnc(N)c(N4CCNC5(CCCCC5)C4)n3)cc12 [Compound 82, 6-amino-5-(1,4-diaza-spiro[5.5]undec-4-yl)-3-(3-methylindazol-5-yl)-[1,2,4]triazine]
32 | 0.1 to 1 | Cc1n[nH]c2ccc(-c3nnc(N)c(N4CCC(N)C4)n3)cc12 (centres unmarked) [Compound 83, 6-amino-5-(3-aminopyrrolidin-1-yl)-3-(3-methylindazol-5-yl)-[1,2,4]triazine]
33 | 0.1 to 1 | CNC1CCN(c2nc(-c3ccc4[nH]nc(C)c4c3)nnc2N)C1 (centres unmarked) [Compound 84, 6-amino-5-(3-methylaminopyrrolidin-1-yl)-3-(3-methylindazol-5-yl)-[1,2,4]triazine]
34 | 0.1 to 1 | Cc1n[nH]c2ccc(-c3nnc(N)c(N4CCNC5(CCCC5)C4)n3)cc12 [Compound 85, 6-amino-5-(6,9-diaza-spiro[4.5]dec-9-yl)-3-(3-methylindazol-5-yl)-[1,2,4]triazine]
35 | < 0.1 | Cc1n[nH]c2ccc(-c3nnc(CCc4ccccc4)c(N4CCNCC4)n3)cc12 [Compound 92, 3-(3-methylindazol-5-yl)-6-phenethyl-5-(piperazin-1-yl)-[1,2,4]triazine]
